Consider three molecules from patent US11873292B2, “Trans-indoline cyclopropylamine chemical compound, and method for preparation, pharmaceutical composition, and use thereof” (Shanghai Institute of Materia Medica, Chinese Academy of …, priority 2016, dated 2024).

One data set concerns the target Human recombinant MAOA (Homo sapiens (Human), UniProt P21397). In words: MAOA in vitro activity experiment (MAO-Glo). The format is biochemical.
In another data set the target is human recombinant MAOB (Homo sapiens (Human), UniProt P27338). In words: MAOB in vitro activity experiment (MAO-Glo). The format is biochemical.
Sequence of human recombinant MAOB (P27338 whole entry): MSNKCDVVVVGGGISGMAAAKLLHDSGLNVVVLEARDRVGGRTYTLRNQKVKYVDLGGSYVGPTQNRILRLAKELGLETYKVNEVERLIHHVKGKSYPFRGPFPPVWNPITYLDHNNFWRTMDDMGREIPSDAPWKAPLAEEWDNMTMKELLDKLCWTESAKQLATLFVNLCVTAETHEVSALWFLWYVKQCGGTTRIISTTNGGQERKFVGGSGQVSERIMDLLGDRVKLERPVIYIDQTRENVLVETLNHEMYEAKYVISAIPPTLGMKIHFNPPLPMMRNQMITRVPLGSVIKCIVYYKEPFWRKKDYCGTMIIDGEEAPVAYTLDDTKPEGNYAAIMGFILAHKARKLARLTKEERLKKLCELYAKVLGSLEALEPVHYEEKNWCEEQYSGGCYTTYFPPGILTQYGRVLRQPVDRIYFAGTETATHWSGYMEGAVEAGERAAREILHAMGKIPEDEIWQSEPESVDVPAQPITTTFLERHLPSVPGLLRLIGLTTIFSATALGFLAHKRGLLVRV
Another data set concerns the target Human recombinant LSD1 (Homo sapiens (Human), UniProt O60341). In words: LSD1 in vitro activity assay (LANCE Ultra LSD1 Histone H3-Lysine 4 Demethylase Assay). The format is biochemical. Conditions: LSD1 inhibition.

Sequence of Human recombinant MAOA (P21397 whole entry): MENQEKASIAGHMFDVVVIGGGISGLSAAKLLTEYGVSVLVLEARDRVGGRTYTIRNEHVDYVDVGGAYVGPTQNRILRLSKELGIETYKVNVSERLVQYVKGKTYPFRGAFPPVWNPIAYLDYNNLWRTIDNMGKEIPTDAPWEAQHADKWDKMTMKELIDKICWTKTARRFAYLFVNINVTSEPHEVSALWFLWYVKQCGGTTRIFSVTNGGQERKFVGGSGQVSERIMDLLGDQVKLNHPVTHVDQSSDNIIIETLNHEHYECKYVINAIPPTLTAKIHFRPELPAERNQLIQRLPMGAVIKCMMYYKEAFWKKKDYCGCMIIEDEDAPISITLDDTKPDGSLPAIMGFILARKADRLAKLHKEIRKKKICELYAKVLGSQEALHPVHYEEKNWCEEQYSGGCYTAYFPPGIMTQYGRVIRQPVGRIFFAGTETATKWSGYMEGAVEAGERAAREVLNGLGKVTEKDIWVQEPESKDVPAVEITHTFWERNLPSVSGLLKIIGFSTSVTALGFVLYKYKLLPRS

For the molecule `O=C(c1ccc(-c2ccccc2)cc1)N1CCc2cc([C@@H]3C[C@H]3NCC3CCNCC3)ccc21` (relative stereo) [Compound A47, Trans-biphenyl-4-yl(5-(2-(piperidin-4-ylmethylamino)cyclopropyl)indolin-1-yl)methanone], the melting point is 179 to 180 °C. In addition, the IC50 on Human recombinant MAOA was above 100 µM. In addition, the IC50 at human recombinant MAOB amounted to 7.33 ± 0.11 µM. Besides, the IC50 at Human recombinant LSD1 was found to be 0.0102 ± 0.00159 µM.

For the molecule `O=C(c1cccc(C(F)(F)F)c1)N1CCc2cc([C@@H]3C[C@H]3NCC3CCNCC3)ccc21` (relative stereo) [Compound A48, Trans-(5-(2-(piperidin-4-ylmethylamino)cyclopropyl)indolin-1-yl)(3-(trifluoromethyl)phenyl) methanone], the melting point is 230 to 232 °C. Also, the IC50 at Human recombinant MAOA was above 100 µM. The IC50 at human recombinant MAOB is 42.6 ± 0.78 µM. Moreover, the IC50 at Human recombinant LSD1 worked out at 0.02557 ± 0.00011 µM.

Molecule `O=C(OCc1ccccc1)N1CCc2cc([C@@H]3C[C@H]3NCC3CCNCC3)ccc21` (relative stereo) [Compound A50, Trans-benzyl-5-(2-(piperidin-4-ylmethylamino)cyclopropyl)Indoline-1-carboxylate] had a melting point of 215 to 218 °C. On Human recombinant MAOA, the IC50 is above 100 µM. Also, the 50% inhibitory concentration (IC50) on human recombinant MAOB amounted to 10.7 ± 1.22 µM. Further, the IC50 at Human recombinant LSD1 was 0.0353 ± 0.00348 µM.
